Measurements from PubChem BioAssay (NCI).
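Following 48 hours of exposure in 96-well plates, responses at five concentrations were used to interpolate endpoints linearly. GI50 marks 50% less growth. Definition used: TGI = concentration required for complete inhibition of growth.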

Legend:
Experiment in all cases: DTP human tumour cell line panel, 48 h
SN12C renal = test system: SN12C renal
ACHN renal = test system: ACHN renal
OVCAR-5 ovarian = test system: OVCAR-5 ovarian
CAKI-1 renal = test system: CAKI-1 renal
COLO 205 colon = test system: COLO 205 colon
HOP-18 NSCLC = test system: HOP-18 NSCLC
DMS 114 small cell lung = test system: DMS 114 small cell lung
SNB-78 CNS = test system: SNB-78 CNS
LXFL 529 NSCLC = test system: LXFL 529 NSCLC
NCI-H522 lung = test system: NCI-H522 lung

SMILES | TGI (SN12C renal) | TGI (ACHN renal) | TGI (OVCAR-5 ovarian) | TGI (CAKI-1 renal) | TGI (COLO 205 colon) | TGI (HOP-18 NSCLC) | TGI (DMS 114 small cell lung) | TGI (SNB-78 CNS) | TGI (LXFL 529 NSCLC) | TGI (NCI-H522 lung) | GI50 (SN12C renal) | GI50 (ACHN renal) | GI50 (OVCAR-5 ovarian) | GI50 (CAKI-1 renal) | GI50 (COLO 205 colon) | GI50 (NCI-H522 lung)
O=C(CN1CCOCC1)Nc1nc(-c2ccc(Cl)cc2)cs1 | > 100 µM | 79.6 µM | > 100 µM | > 100 µM | 93 µM | > 100 µM | 65.8 µM | > 100 µM | – | – | – | – | – | – | – | –
CSc1ccc(C2OC(=O)c3ccccc32)c2ccccc12 (centres undefined) | > 100 µM | > 100 µM | > 100 µM | > 100 µM | > 100 µM | > 100 µM | > 100 µM | > 100 µM | > 100 µM | > 100 µM | – | – | – | – | – | –
C/C(=N\NS(=O)(=O)c1ccccc1)c1ccc(Cl)c(Cl)c1 | > 100 µM | > 100 µM | > 100 µM | > 100 µM | 85.3 µM | > 100 µM | > 100 µM | > 100 µM | > 100 µM | – | – | – | – | – | – | –
CCCCCCCCCCCC(=O)OCC1OC(n2cc(F)c(=O)[nH]c2=O)C(NC(=O)OCc2ccccc2)C(OC(=O)CCCCCCCCCCC)C1O (centres undefined) | > 100 µM | > 100 µM | > 100 µM | > 100 µM | > 100 µM | > 100 µM | > 100 µM | > 100 µM | > 100 µM | > 100 µM | – | – | – | – | – | –
Cn1cc(-c2ccc3occ(-c4cccc(-c5ccncc5)c4)c3n2)cn1 | > 100 µM | > 100 µM | > 100 µM | > 100 µM | > 100 µM | – | – | – | – | 12.1 µM | 1.32 µM | 0.8 µM | 3.96 µM | 0.38 µM | 0.546 µM | 0.594 µM
NC1C[C@H](n2cc(/C=C/Br)c(=O)[nH]c2=O)C[C@@H]1CO (some centres undefined) | > 100 µM | > 100 µM | – | – | > 100 µM | > 100 µM | > 100 µM | – | > 100 µM | > 100 µM | – | – | – | – | – | –
COC(=O)[C@H](C[C@H](Cc1ccccc1)NC(=O)c1csc([C@@H](C[C@H](C(C)C)N(C)C(=O)[C@@H](NC(=O)[C@H]2CCCCN2C)C(C)C)OC(C)=O)n1)NC(=O)OCc1ccccc1 | > 9 µM | > 9 µM | > 9 µM | > 9 µM | – | – | – | – | – | 0.0525 µM | < 0.0009 µM | 0.00243 µM | 0.0046 µM | 0.00168 µM | < 0.0009 µM | < 0.0009 µM
Nc1ccn(CCNCCn2cnc3nc(N)[nH]c(=O)c32)c(=O)n1 | > 100 µM | > 100 µM | > 100 µM | – | > 100 µM | > 100 µM | > 100 µM | > 100 µM | > 100 µM | > 100 µM | – | – | – | – | – | –
CC(C)c1cc(-c2n[nH]c(=O)n2-c2ccc3c(ccn3C)c2)c(O)cc1O | > 52.2 µM | > 43.1 µM | > 48.4 µM | > 71.5 µM | 0.981 µM | – | – | – | – | 17.1 µM | < 0.0222 µM | < 0.0209 µM | 0.147 µM | 0.0479 µM | 0.0259 µM | < 0.0205 µM
COc1ccc(OC)c(/C=C2\SC(=S)NC2=O)c1 | 77.4 µM | 95.1 µM | > 100 µM | 61.4 µM | > 100 µM | – | – | – | – | > 100 µM | 24.8 µM | 26.7 µM | 26.7 µM | 21.9 µM | 48.3 µM | 31.4 µM
CCN(CC)c1ccc(C(=O)c2ccccc2C(=O)O)c(O)c1 | > 100 µM | > 100 µM | > 100 µM | > 100 µM | > 100 µM | – | > 100 µM | > 100 µM | > 100 µM | > 100 µM | – | – | – | – | – | –
COC(=O)[C@@]1(C)CC[C@]2(C)CC[C@]3(C)C4=CC=C5C(=CC(=O)C(O)=C5C)[C@]4(C)[C@@H](O)C[C@@]3(C)[C@@H]2C1 | 20.7 µM | 13.4 µM | 24.5 µM | 13.9 µM | 22.2 µM | – | – | – | – | 20 µM | 9.65 µM | 3.8 µM | 12.9 µM | 3.94 µM | 7.36 µM | 8.39 µM
COc1ccc2nc(-c3cccs3)cc(C(O)CN3CCSCC3)c2c1 (centres undefined) | 87.7 µM | 45.9 µM | 59.8 µM | > 100 µM | 53.7 µM | 54.7 µM | 38.7 µM | – | 91.8 µM | 45.3 µM | – | – | – | – | – | –
CN(C)CCCNC(CC#N)CCC#N (centres undefined) | > 10 µM | > 10 µM | > 10 µM | > 10 µM | > 10 µM | – | – | – | – | > 10 µM | – | – | – | – | – | –
CCOC(=O)c1cc(NS(=O)(=O)c2ccccc2)cc(C(=O)OCC)c1 | > 100 µM | > 100 µM | > 100 µM | > 100 µM | > 100 µM | – | – | – | – | > 100 µM | > 100 µM | > 100 µM | > 100 µM | > 100 µM | > 100 µM | > 100 µM
COC(=O)C(=O)C1(CCC(C)=O)c2ccccc2-c2c(C)ccc(C)c21 (centres undefined) | > 100 µM | > 100 µM | > 100 µM | > 100 µM | > 100 µM | > 100 µM | > 100 µM | 78.5 µM | > 100 µM | 94.1 µM | – | – | – | – | – | –
CC1SC2=NC3=C(c4ccccc4C3=O)C(c3ccc(F)cc3)N2C1=O (centres undefined) | > 100 µM | > 100 µM | > 100 µM | > 100 µM | > 100 µM | – | > 100 µM | – | > 100 µM | > 100 µM | – | – | – | – | – | –
COc1ccc2c(c1)cn1c3ccc(O)cc3nc(N)c21 | 19.1 µM | 5.18 µM | 18.3 µM | 4.39 µM | 4.68 µM | – | – | – | – | 2.22 µM | 0.342 µM | 0.109 µM | 1.57 µM | 0.246 µM | 0.885 µM | 0.111 µM
O=C(N/C(=C\c1ccc2c(c1)OCO2)c1nc2ccccc2[nH]1)c1ccccc1 | > 84.1 µM | > 100 µM | > 100 µM | > 100 µM | > 60.3 µM | > 100 µM | 6.08 µM | > 95.9 µM | 97.4 µM | 61 µM | – | – | – | – | – | –
Cc1ccc(-c2cn3ccnc3c(-c3ccc(Cl)cc3)n2)cc1 | 62.5 µM | 22.3 µM | > 100 µM | 2.84 µM | > 29.3 µM | – | – | – | – | > 8.22 µM | 0.532 µM | – | 14.8 µM | 0.0361 µM | 0.2 µM | 1.98 µM
